Test results from BindingDB's records for patent US11185537 (Novartis, 2021).
pEC50: −log10 of the molar value.

Columns and labels:
[1] = target: Zinc finger protein Helios (Homo sapiens, UniProt Q9UKS7)
[2] = target: DNA-binding protein Ikaros (Human, UniProt Q13422)
Chain of DNA-binding protein Ikaros (Q13422 whole entry): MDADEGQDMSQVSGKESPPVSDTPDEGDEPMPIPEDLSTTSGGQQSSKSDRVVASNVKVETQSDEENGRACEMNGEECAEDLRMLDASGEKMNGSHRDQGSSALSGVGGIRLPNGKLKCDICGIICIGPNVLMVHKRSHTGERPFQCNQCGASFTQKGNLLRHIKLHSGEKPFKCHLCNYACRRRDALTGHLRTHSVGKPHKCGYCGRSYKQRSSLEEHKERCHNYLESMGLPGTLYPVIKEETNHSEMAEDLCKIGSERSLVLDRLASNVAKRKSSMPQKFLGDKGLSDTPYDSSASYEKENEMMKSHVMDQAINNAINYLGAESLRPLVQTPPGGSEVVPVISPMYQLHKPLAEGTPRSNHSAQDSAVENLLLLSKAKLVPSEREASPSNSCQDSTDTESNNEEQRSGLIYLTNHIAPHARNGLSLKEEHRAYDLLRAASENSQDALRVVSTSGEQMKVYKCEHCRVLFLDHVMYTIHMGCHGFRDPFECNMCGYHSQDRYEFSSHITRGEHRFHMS

Chain of Zinc finger protein Helios (Q9UKS7 whole entry): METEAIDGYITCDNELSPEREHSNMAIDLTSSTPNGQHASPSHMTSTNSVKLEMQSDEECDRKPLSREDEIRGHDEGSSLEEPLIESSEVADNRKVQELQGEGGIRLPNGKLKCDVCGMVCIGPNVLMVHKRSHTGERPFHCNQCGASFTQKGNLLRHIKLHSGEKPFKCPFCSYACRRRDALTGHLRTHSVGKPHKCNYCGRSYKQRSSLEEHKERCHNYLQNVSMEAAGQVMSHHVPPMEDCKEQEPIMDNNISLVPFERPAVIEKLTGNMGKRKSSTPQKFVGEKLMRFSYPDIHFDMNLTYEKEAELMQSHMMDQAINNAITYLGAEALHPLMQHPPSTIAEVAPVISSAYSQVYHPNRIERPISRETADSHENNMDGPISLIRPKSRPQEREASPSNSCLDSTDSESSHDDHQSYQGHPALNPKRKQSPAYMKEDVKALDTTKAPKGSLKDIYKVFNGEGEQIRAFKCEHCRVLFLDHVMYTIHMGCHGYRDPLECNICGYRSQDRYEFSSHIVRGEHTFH

CN[C@H]1CC=CC[C@@H]1N(C)c1ccc2c(c1)CN(C1CCC(=O)NC1=O)C2=O (some centres not stated) [US11185537, Compound Mix]
pEC50 [1]: 6.64 | pEC50 [2]: 6.92
